Data on 21 compounds can be found in patent US20210300940A1 (Merck Patent GmbH, priority 2018, published 2021).

In experiment [1] the target is T1, TLR7 (Homo sapiens, UniProt Q9NYK1).
T1 construct: expressed in transfected cells; host or cells: HEK/293 cells carrying TLR7 and an NF-kB luciferase reporter
T1 sequence (Q9NYK1 27-1049): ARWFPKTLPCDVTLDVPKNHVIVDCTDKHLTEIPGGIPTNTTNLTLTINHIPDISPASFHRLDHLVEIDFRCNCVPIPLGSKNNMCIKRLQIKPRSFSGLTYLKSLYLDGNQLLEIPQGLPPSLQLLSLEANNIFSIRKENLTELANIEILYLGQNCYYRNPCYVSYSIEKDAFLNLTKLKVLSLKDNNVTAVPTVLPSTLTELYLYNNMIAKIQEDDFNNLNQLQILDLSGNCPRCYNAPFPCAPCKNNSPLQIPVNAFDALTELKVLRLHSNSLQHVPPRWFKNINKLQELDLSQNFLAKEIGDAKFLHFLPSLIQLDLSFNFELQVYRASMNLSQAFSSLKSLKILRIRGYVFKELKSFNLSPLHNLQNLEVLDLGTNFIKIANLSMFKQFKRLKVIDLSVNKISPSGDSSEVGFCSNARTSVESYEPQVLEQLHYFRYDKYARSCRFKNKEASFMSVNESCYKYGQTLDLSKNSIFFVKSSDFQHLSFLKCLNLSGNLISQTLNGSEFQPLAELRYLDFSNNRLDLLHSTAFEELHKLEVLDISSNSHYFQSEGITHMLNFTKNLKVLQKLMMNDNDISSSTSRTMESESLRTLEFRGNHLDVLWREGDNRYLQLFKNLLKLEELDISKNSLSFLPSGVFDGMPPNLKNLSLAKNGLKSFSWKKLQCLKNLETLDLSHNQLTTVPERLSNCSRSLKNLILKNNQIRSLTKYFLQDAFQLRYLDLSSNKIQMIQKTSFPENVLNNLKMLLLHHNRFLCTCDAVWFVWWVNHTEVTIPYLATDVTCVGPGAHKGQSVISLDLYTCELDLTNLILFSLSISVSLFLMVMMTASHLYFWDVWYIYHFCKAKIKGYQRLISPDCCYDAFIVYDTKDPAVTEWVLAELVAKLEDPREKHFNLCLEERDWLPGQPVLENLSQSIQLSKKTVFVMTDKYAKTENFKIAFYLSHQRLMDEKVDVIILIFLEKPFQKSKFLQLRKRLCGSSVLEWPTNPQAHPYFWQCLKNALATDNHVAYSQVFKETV
The experiment can be described thus: HEK/293 TLR7 Cell Assay. It counts as cell-based. To be noted: TLR7/NFKb HEK cells, R848 agonist 10 uM final concentration, Steady-Glo readout; read-out: TLR7 potency. The essentials:
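TLR7/NF-κB reporter HEK293 cells, 5000/well, cultured 24 h, then preincubated 30 min with compound before R848 agonist (10 uM final). After 5 h stimulation, Steady-Glo luciferase luminescence read.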

For experiment [2], the target named is T2, TLR8 (Homo sapiens, UniProt Q9NR97).
T2 construct: expressed in transfected cells; host or cells: HEK/293 reporter cells (NF-kB luciferase)
T2 sequence (Q9NR97 27-1041): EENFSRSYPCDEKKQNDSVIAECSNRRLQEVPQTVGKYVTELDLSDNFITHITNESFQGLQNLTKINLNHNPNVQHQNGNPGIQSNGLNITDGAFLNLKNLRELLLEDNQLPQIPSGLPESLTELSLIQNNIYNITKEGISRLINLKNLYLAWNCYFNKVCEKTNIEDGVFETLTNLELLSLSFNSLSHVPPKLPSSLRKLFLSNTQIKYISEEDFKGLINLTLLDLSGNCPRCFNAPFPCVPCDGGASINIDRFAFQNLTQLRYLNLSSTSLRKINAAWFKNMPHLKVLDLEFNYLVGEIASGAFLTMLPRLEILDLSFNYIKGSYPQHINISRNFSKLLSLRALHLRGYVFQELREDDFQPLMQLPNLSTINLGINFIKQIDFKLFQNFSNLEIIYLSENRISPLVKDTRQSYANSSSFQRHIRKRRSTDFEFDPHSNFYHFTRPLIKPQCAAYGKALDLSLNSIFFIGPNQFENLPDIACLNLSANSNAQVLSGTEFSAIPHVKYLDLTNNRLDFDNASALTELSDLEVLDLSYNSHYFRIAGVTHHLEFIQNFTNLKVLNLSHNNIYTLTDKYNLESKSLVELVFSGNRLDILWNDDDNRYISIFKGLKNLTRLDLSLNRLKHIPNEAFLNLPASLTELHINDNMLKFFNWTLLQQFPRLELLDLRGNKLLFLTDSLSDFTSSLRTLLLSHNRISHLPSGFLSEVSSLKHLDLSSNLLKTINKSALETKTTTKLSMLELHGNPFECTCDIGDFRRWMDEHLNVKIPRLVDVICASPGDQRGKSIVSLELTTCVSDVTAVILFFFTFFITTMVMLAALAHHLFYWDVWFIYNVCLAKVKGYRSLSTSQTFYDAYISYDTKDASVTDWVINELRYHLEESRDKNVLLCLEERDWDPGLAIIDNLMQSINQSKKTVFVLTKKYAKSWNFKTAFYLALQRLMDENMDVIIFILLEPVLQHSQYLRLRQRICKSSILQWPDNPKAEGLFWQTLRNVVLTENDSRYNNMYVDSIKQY
Put plainly: HEK/293 TLR8 Cell Assay. It counts as cell-based. To be noted: HEK cells, R848 agonist 30 uM final concentration, Steady-Glo readout; read-out: TLR8 potency.

Some results are limits rather than exact numbers.

Take `C[C@H]1C[C@@H](NCC(=O)N2CCOCC2)CN(c2ccc(C(F)(F)F)c3ncccc23)C1` [Example 18, 2-{[(3R,5S)-5-methyl-1-[8-(trifluoromethyl)quinolin-5-yl]piperidin-3-yl]amino}-1-(morpholin-4-yl)ethan-1-one]: the IC50 in experiment [1] and in experiment [2] was under 75 nM each time.

Consider `CN(C)CCC(=O)N[C@@H]1C[C@H](C(F)(F)F)CN(c2ccc(C#N)c3ncccc23)C1` [Example 65, N-[(3R,5S)-1-(8-cyanoquinolin-5-yl)-5-(trifluoromethyl)piperidin-3-yl]-3-(dimethylamino)propanamide], for which the IC50 in experiment [1] and in experiment [2] was under 75 nM throughout.

Consider `C[C@@H]1CN(c2ccc(C#N)c3nccnc23)C[C@H](C(=O)NC[C@H]2CN(C)CCO2)O1` (single isomer, unassigned) [Example 324], for which the IC50 in experiment [1] and in experiment [2] was under 75 nM throughout.

`C[C@H]1C[C@@H](NC(=O)[C@@H]2CCCN2)CN(c2ccc(C#N)c3nccnc23)C1` [Example 175, (S)-Pyrrolidine-2-carboxylic acid [(3R,5S)-1-(8-cyano-quinoxalin-5-yl)-5-methyl-piperidin-3-yl]-amide]: the IC50 was 75 to 150 nM in experiment [1] and under 75 nM in experiment [2].

In the case of `C[C@@H]1CN(c2ccc(C#N)c3nccnc23)C[C@H](CN2CCC(F)(F)C2)O1` [Example 215, 8-[(2S,6R)-2-(3,3-Difluoro-pyrrolidin-1-ylmethyl)-6-methyl-morpholin-4-yl]-quinoxaline-5-carbonitrile], the IC50 is 75 to 150 nM in experiment [1] and over 150 nM in experiment [2].

`C[C@H]1C[C@@H](NC(=O)CC2(F)CCN(C)CC2)CN(c2ccc(C#N)c3ncncc23)C1` [Example 88, N-[(3R,5S)-1-(8-cyanoquinazolin-5-yl)-5-methylpiperidin-3-yl]-2-(4-fluoro-1-methylpiperidin-4-yl)acetamide]: the IC50 in experiment [1] and in experiment [2] was under 75 nM throughout.

For the compound `C[C@@H]1CN(c2ccc(C(F)(F)F)c3ncccc23)C[C@H](CN2CCC(N3CCOCC3)CC2)O1` [Example 329, 5-[(2R,6S)-2-Methyl-6-(4-morpholin-4-yl-piperidin-1-ylmethyl)-morpholin-4-yl]-8-trifluoromethyl-quinoline], the IC50 in experiment [1] was 75 to 150 nM; in experiment [2], under 75 nM.

With `C[C@@H]1CN(c2cnc(C#N)c3ncccc23)C[C@H](C(=O)NCC(O)C(F)(F)F)O1` (stereo partly drawn) [Example 269, (2R,6R)-4-(8-Cyano-[1,7]naphthyridin-5-yl)-6-methyl-morpholine-2-carboxylic acid (3,3,3-trifluoro-2-hydroxy-propyl)-amide], the IC50 in experiment [1] and in experiment [2] was over 150 nM throughout.

As for `CN1CCC(F)(CC(=O)N[C@@H]2C[C@H](C(F)(F)F)CN(c3ccc(C#N)c4nccnc34)C2)CC1` [Example 77], the IC50 in experiment [1] and in experiment [2] was under 75 nM each time.

For the compound `C[C@@H]1CN(c2ccc(C#N)c3ncncc23)C[C@H](C(=O)NC2CCC(N3CCOCC3)CC2)O1` (stereo partly drawn) [Example 268, (2R,6R)-4-(8-Cyano-quinazolin-5-yl)-6-methyl-morpholine-2-carboxylic acid (4-morpholin-4-yl-cyclohexyl)-amide], the IC50 in experiment [1] and in experiment [2] was under 75 nM in each case.

On to `C[C@@H]1CN(c2ccc(C#N)c3nccnc23)C[C@H](C(=O)NC[C@H]2COCCN2)O1` (single isomer, unassigned) [Example 296], for which the IC50 in experiment [1] and in experiment [2] was under 75 nM in each case.

For the compound `C[C@H]1C[C@@H](NC(=O)C2CCCCN2)CN(c2ccc(C(F)(F)F)c3ncccc23)C1` (stereo partly drawn) [Example 181, Piperidine-2-carboxylic acid [(3R,5S)-5-methyl-1-(8-trifluoromethyl-quinolin-5-yl)-piperidin-3-yl]-amide], the IC50 in experiment [1] and in experiment [2] was under 75 nM in each case.

With `CONC(=O)CCN[C@@H]1C[C@H](C)CN(c2ccc(C(F)(F)F)c3ncccc23)C1` [Example 55, N-Methoxy-3-[(3R,5S)-5-methyl-1-(8-trifluoromethyl-quinolin-5-yl)-piperidin-3-ylamino]-propionamide], the IC50 in experiment [1] and in experiment [2] was under 75 nM throughout.

With `C[C@@H]1CN(c2cnc(C#N)c3ncccc23)C[C@H](C(=O)NCC2CCCN2C)O1` (stereo partly drawn) [Example 273, (2R,6R)-4-(8-Cyano-[1,7]naphthyridin-5-yl)-6-methyl-morpholine-2-carboxylic acid (1-methyl-pyrrolidin-2-ylmethyl)-amide], the IC50 in experiment [1] and in experiment [2] was under 75 nM each time.

Regarding `C[C@@H]1CN(c2ccc(C#N)c3nccnc23)C[C@H](C(=O)NC[C@@H]2CN(C)CCO2)O1` (single isomer, unassigned) [Example 325], the IC50 in experiment [1] and in experiment [2] was under 75 nM throughout.

`Cc1ccc(N2C[C@@H](C)C[C@@H](n3ccnc3)C2)c2cccnc12` [Example 159, 5-[(3R,5S)-3-(1H-imidazol-1-yl)-5-methylpiperidin-1-yl]-8-methylquinoline]: the IC50 in experiment [1] was over 150 nM; in experiment [2] it was under 75 nM.

`N#Cc1ccc(N2C[C@@H](C(=O)N3C[C@@H](N)C4(CC4)C3)O[C@@H](C(F)(F)F)C2)c2nccnc12` (single isomer, unassigned) [Example 312]: the IC50 in experiment [1] is under 75 nM; in experiment [2], over 150 nM.

For the compound `C[C@@H]1CN(c2ccc(C#N)c3nccnc23)C[C@H](C(=O)NC[C@H](O)CN(C)C)O1` (single isomer, unassigned) [Example 261], the IC50 in experiment [1] and in experiment [2] was under 75 nM throughout.

Take `C[C@@H]1CN(c2cnc(C(F)(F)F)c3ncccc23)C[C@H](CNC2CCS(=O)(=O)CC2)O1` [Example 384, (1,1-Dioxo-hexahydro-1lambda6-thiopyran-4-yl)-[(2S,6R)-6-methyl-4-(8-trifluoromethyl-[1,7]naphthyridin-5-yl)-morpholin-2-ylmethyl]-amine]: the figures for the IC50 in experiment [1] and in experiment [2] were under 75 nM and over 150 nM, respectively.

Regarding `Cc1c(F)cc(N2C[C@@H](C)C[C@@H](NC(=O)[C@@H](N)[C@@H](C)O)C2)c2cccnc12` [Example 134, (2S,3R)-2-Amino-N-[(3R,5S)-1-(7-fluoro-8-methyl-quinolin-5-yl)-5-methyl-piperidin-3-yl]-3-hydroxy-butyramide], the IC50 in experiment [1] and in experiment [2] was 75 to 150 nM in each case.

On to `N#Cc1ccc(N2C[C@@H](C(=O)NC[C@H](O)CO)O[C@@H](C(F)(F)F)C2)c2nccnc12` (single isomer, unassigned) [Example 281], for which the IC50 in experiment [1] and in experiment [2] was over 150 nM throughout.
